Test results as given in patent US20250057793A1, “BENZOIC ACID SALTS FOR TREATMENT OF NERVOUS SYSTEM INJURIES AND DISORDERS” (The United States Government as represented by the …, priority 2021, published 2025).

What was measured:
[1] = test system: experimental allergic encephalomyelitis (EAE) in mice; details: oral, 50 mg/kg body wt/d; cited from earlier work
TBI mice [2] = assay: Novel object recognition (NOR) test in TBI mice; assay type: in vivo, mouse; details: 21 days post-injury, 50 mg/kg/day oral gavage
Method: This test evaluates the animal's ability to recognize the novel object in the environment and monitor short-term memory. Initially, the mice were placed in a square novel box (20 in. long×8 in. high) surrounded with an infrared sensor. Two plastic toys (2.5-3 in. size) that varied in color, shape, and texture were placed in specific locations in the environment 18in. away from each other. The mice were able to freely explore the environment and objects for 15 mins and were then placed back into their individual home cages. After 30 min intervals, the mice were placed back into the environment, with the 2 objects in the same locations, but now one of the familiar objects was replaced with a third novel object. The mice were again allowed to freely explore both objects for 15 min. The familiar and novel objects were thoroughly cleaned with a mild detergent after each testing session.

[3] = test system: Huntington pathology in mice; details: oral, 50 mg/kg body wt/d; cited from earlier work
TBI mice [4] = assay: Synapse maturation markers (PSD-95, NR2A, GluR1) in brain of TBI mice; assay type: in vivo, mouse; details: 21 days post-injury, 50 mg/kg/day oral gavage
Method: FIGS. 1lA-11H. Restoration of PSD-95, NR2A and GluR1 in the hippocampus of TBI mice by oral administration of GTB. […] Twenty-one days after CCI injury, brain sections were double-labeled for NeuN and PSD-95 (FIG. 11A, control; FIG. 111B, CCI; FIG. 11C, CCI+GTB; FIG. 11D, CCI+Vehicle). Results represent analysis of one section of each of six mice per group. […] FIG. 11E. Actin was run as a loading control. […] Data are expressed as mean+SD. Statistical analyses were performed with one way ANOVA.

[5] = mice treated with cinnamon orally; cited from earlier work
[6] = test system: OPCs cultured on polycaprolactone nanofibers; assay: Myelination of synthetic polycaprolactone nanofibers by OPCs; assay type: cell-based, mouse; details: 100 μM, 2 days after 7 days culture on nanofibers
Method: FIG. 15A) After 18 h of 100 μM NaB treatment in serum-free condition, cells were fixed and then dual immuno-stained with MBP (red) and OPC marker NG2 (green). Nuclei were stained with DAPI (blue). FIG. 15B) Similarly, OPCs were stained with PLP (red) and A2B5 (green) under similar treatment condition. Quantification of MBP+(FIG. 15C), NG2+(FIG. 15D), PLP+(FIG. 15E), and A2B5+(FIG. 15F) cells as a percentage of total cells (DAPI+). Average 5 fields per slide, total 3 slides. Results are mean+SEM. ***p<0.001. FIG. 15G) For protein expression, cells were treated with different doses of NaB for 18 h under serum free condition and then immunoblotted with PLP and MOG. FIG. 15H) Densitometric analyses of the bands relative to beta actin were done for PLP and MOG. ^ap<0.001 vs. control PLP; ^bp<0.005 vs. control MOG. FIG. 151) Cells were treated with NaB (100 μM) and NaFO (100 μM) for 4 h under serum-free condition followed by monitoring the mRNA expression of myelin-specific genes by real-time PCR (ap<0.01 vs. control PLP; ^bp<0.01 vs. control MOG; cp<0.01 vs. control MBP; dp<0.01 vs. control CNPase). OPCs were cultured on the top of randomly-oriented polycaprolactone nanofibers (Nanofiber Solutions; Cat #Z694576) for 7 days. […]

[7] = test system: oligodendroglial progenitor cells (OPCs); assay: Maturation of oligodendroglial progenitor cells (OPCs) into oligodendrocytes; assay type: cell-based, mouse
Method: FIGS. 15A-15L: Effect of sodium benzoate (NaB) on the maturation of oligodendroglial progenitor cells (OPCs) into oligodendrocytes. OPCs were isolated from P1˜P2 neonatal mouse pups, cultured in OPC media for 4 days in vitro (DIV) followed by treatment with 100 μM NaB and sodium formate (NaFO) in the absence of FGF and PDGF.
FIG. 15A) After 18 h of 100 μM NaB treatment in serum-free condition, cells were fixed and then dual immuno-stained with MBP (red) and OPC marker NG2 (green). Nuclei were stained with DAPI (blue). FIG. 15B) Similarly, OPCs were stained with PLP (red) and A2B5 (green) under similar treatment condition. Quantification of MBP+(FIG. 15C), NG2+(FIG. 15D), PLP+(FIG. 15E), and A2B5+(FIG. 15F) cells as a percentage of total cells (DAPI+). Average 5 fields per slide, total 3 slides. Results are mean+SEM. ***p<0.001. FIG. 15G) For protein expression, cells were treated with different doses of NaB for 18 h under serum free condition and then immunoblotted with PLP and MOG. FIG. 15H) Densitometric analyses of the bands relative to beta actin were done for PLP and MOG. ^ap<0.001 vs. control PLP; ^bp<0.005 vs. control MOG. FIG. 151) Cells were treated with NaB (100 μM) and NaFO (100 μM) for 4 h under serum-free condition followed by monitoring the mRNA expression of myelin-specific genes by real-time PCR (ap<0.01 vs. control PLP; ^bp<0.01 vs. control MOG; cp<0.01 vs. control MBP; dp<0.01 vs. control CNPase). OPCs were cultured on the top of randomly-oriented polycaprolactone nanofibers (Nanofiber Solutions; Cat #Z694576) for 7 days. After that, these cells were treated with 100 μM NaB (FIG. 15J) and NaFO (K) for additional 2 days followed by immunofluorescence analysis for MBP (red) (FIG. 15J, control; FIG. 15K, NaB; FIG. 15L, NaFO). […] Representative 3D constructed images of OPCs adhered to nanofibers were also shown at the right side.

[8] = test system: mice with traumatic brain injury (TBI); assay: Remyelination in corpus callosum of mice with TBI (PLP/A2B5 double-labeling); assay type: in vivo, mouse; details: 50 mg/kg body weight/day oral gavage
Method: FIG. 4 are images of the corpus collosum in mice showing the levels of proteolipid protein (PLP) and A2B5, a marker of oligodendroglial progenitor cells (OPC), in the experimental conditions after 21 days. Oral administration of sodium benzoate (NaB), but not sodium formate (NaFO), stimulates remyelination in mice with traumatic brain injury (TBI). Mice (n=6 per group) were induced moderate TBI by controlled cortical impact (CCI). Starting from 2 hours after TBI, mice were treated with NaB and NaFO (50 mg/kg body weight/day; mixed with water) orally via gavage. After 21 d of treatment, brain sections were double-labeled for PLP and A2B5.
Proteolipid protein (PLP) is a marker of oligodendrocytes and A2B5 is a marker of oligodendroglial progenitor cells (OPC). After 21 days of treatment, brain sections were double-labeled with antibodies against PLP and A2B5.

[9] = if consumed in excess; cited from earlier work
LPS-stimulated microglia = details: cited from earlier work
mice with TBI = assay: Side effects of oral NaB in TBI mice; assay type: in vivo, mouse
[10] = different doses of NaB, 18 h, serum free

Structure (SMILES) | adoptive transfer of EAE [1] | time spent with novel object (exploration time) (TBI mice [2]) | Huntington pathology [3] | level of PSD-95 (TBI mice [4]; brain (cortex, hippocampus)) | level of GluR1 (TBI mice [4]; hippocampus) | level of NR2A (TBI mice [4]; hippocampus) | presence of NaB in the brain [5] | myelination of synthetic fibers (MBP immunofluorescence) [6] | mRNA expression of myelin-specific genes (MBP, PLP, MOG, CNPase), real-time PCR ([7]; 100 μM, 4 h, serum-free) | differentiation/maturation of OPCs into oligodendrocytes (MBP+, PLP+, NG2+, A2B5+ cells) ([7]; 100 μM, 18 h, serum-free, absence of FGF and PDGF) | level of MOG in OPCs (immunoblot) [7, 10] | level of PLP in OPCs (immunoblot) [7, 10] | level of PLP in corpus callosum ([8]; 21 days of treatment) | number of OPCs (A2B5 positive) in corpus callosum ([8]; 21 days of treatment) | remyelination ([8]; 21 d of treatment) | excretion [9] | level of TLR4 (LPS-stimulated microglia; LPS-stimulated microglia) | LPS-induced expression of iNOS and proinflammatory cytokines (LPS-stimulated microglia; microglia) | p21ras activation (LPS-stimulated microglia; microglial cells) | side effects (decrease in body weight, loss of hair, fecal boli, infection, untoward behavior) (mice with TBI)
O=C(OCC(COC(=O)c1ccccc1)OC(=O)c1ccccc1)c1ccccc1 [GTB, Glyceryl Tribenzoate] | inhibits | significantly more time | alleviates | upregulated | increased | increased | – | – | – | – | – | – | – | – | – | – | – | – | – | –
O=C([O-])c1ccccc1.[Na+] [NaB, Sodium benzoate] | – | – | – | – | – | – | detected in the brain | stimulation of myelination | corroborated | stimulated | increased | increased | markedly increased | decreased | stimulates | secreted through the urine | has no effect | inhibits | suppression | did not cause any side effects
